For orientation: IC50 means the concentration at which inhibition is half-maximal.

In experiment [1] the target is T1, human NLRP3 (Homo sapiens (Human), UniProt Q96P20). Kind of experiment: Human PBMC NLRP3 Assay (LPS priming, ATP stimulation, cytokine measurement). The class given is cell-based.
Experiment [2] addresses T1, human NLRP3. Kind of experiment: Scintillation Proximity (SPA) NLRP3 Assay: displacement of 3H-MCC950. The class given is binding. The conditions noted are these: for IC50: read-out: SPA IC50. For orientation: Scintillation proximity formats need no separation of bound from free tracer.
In experiment [3] the target is T1, human NLRP3. Nature of the experiment: Human Whole Blood (hWB) NLRP3 Assay (LPS/ATP, IL-1β). The class given is cell-based.
The mark [4] stands for this setting: human whole blood, LPS/ATP, IL-1β, read-out: hWB IC50.
Where [5] appears, read: PBMC IC50, human PBMC, LPS priming, ATP stimulation.
The mark [6] stands for this setting: hWB IC50, human whole blood, LPS/ATP, IL-1β.

SMILES strings stand for the structures.

T1 sequence (Q96P20 whole entry): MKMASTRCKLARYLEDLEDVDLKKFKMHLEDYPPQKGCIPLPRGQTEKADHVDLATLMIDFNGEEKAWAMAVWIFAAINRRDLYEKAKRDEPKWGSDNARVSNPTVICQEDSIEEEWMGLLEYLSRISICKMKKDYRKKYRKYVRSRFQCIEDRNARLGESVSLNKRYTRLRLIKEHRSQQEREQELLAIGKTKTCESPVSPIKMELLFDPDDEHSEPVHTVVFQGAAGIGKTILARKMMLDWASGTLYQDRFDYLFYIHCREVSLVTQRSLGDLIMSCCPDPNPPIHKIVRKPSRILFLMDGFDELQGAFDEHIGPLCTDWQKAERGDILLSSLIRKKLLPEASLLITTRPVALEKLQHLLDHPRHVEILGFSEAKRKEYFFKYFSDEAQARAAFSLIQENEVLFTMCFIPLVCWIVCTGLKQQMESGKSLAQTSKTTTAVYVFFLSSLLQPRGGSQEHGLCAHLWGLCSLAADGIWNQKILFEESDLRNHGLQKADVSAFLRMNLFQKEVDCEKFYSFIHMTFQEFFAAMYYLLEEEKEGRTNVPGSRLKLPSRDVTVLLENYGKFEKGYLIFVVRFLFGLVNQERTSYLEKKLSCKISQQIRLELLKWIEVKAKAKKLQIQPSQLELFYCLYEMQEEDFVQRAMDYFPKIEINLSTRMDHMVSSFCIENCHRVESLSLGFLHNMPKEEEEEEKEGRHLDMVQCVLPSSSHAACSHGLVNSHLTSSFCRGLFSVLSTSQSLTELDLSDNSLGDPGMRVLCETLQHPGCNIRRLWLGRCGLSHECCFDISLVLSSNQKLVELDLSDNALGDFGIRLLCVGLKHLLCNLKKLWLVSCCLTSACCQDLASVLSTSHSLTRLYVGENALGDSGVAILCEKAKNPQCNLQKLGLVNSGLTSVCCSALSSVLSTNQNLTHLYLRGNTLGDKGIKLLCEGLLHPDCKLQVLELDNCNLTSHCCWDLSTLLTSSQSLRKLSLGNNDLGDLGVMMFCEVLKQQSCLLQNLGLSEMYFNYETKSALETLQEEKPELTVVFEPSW

Turning to `O=C(N[C@@H]1CC[C@H]2CC[C@@H]1N2c1nnn[nH]1)C1(c2ccc(Cl)c(F)c2O)CC1` [76C*, N-((1S,2R,5S)-8-(1H-tetrazol-5-yl)-8-azabicyclo[3.2.1]octan-2-yl)-1-(4-chloro-3-fluoro-2-hydroxyphenyl)cyclopropane-1-carboxamide], the half-maximal inhibitory concentration (IC50) at human NLRP3 [1] (human PBMC, LPS priming, ATP stimulation, read-out: PBMC IC50) is 100 to 500 nM; on human NLRP3 [2] (displacement of 3H-MCC950), less than 1000 nM; on human NLRP3 [3] (setting [4]) it was 1000 to 2000 nM.

For `O=C(N[C@@H]1CC[C@H]2CC[C@@H]1N2c1nnn[nH]1)C1(c2ccc(OC(F)F)cc2O)CC1` [77C*, N-((1S,2R,5S)-8-(1H-tetrazol-5-yl)-8-azabicyclo[3.2.1]octan-2-yl)-1-(4-(difluoromethoxy)-2-hydroxyphenyl)cyclopropane-1-carboxamide], the IC50 is 10 to 100 nM on human NLRP3 [1] (setting [5]), less than 1000 nM on human NLRP3 [2] (displacement of 3H-MCC950) and less than 1000 nM against human NLRP3 [3] (setting [6]).

Take `O=C(N[C@@H]1CC[C@H]2CC[C@@H]1N2c1nnn[nH]1)C1(c2ccc(OC(F)(F)F)cc2O)CC1` [78C*, N-((1S,2R,5S)-8-(1H-tetrazol-5-yl)-8-azabicyclo[3.2.1]octan-2-yl)-1-(2-hydroxy-4-(trifluoromethoxy)phenyl)cyclopropane-1-carboxamide]: the IC50 was 10 to 100 nM against human NLRP3 [1] (setting [5]), less than 1000 nM at human NLRP3 [2] (displacement of 3H-MCC950) and 2000 to 3000 nM on human NLRP3 [3] (setting [4]).

Regarding `C[C@@H]1C[C@@H](NC(=O)C2(c3ccc(Cl)cc3)CC2)[C@H]2CC[C@@H]1N2c1nnn[nH]1` [80A*, 1-(4-chlorophenyl)-N-((1R,2R,4R,5S)-4-methyl-8-(1H-tetrazol-5-yl)-8-azabicyclo[3.2.1]octan-2-yl)cyclopropane-1-carboxamide], the 50% inhibitory concentration (IC50) was 10 nM at human NLRP3 [1] (PBMC IC50); 10 to 100 nM against human NLRP3 [1] (setting [5]); less than 1000 nM at human NLRP3 [2] (displacement of 3H-MCC950); 130 nM at human NLRP3 [2]; less than 1000 nM against human NLRP3 [3] (setting [6]); 840 nM on human NLRP3 [3] (read-out: hWB IC50). Further, the “fold increase in potency as measured by PBMC IC50” value on human NLRP3 [1] (relative to Compound 46A) was found to be 10 fold. In addition, at human NLRP3 [2] (relative to Compound 46A), the “fold increase in binding activity (SPA IC50)” value turned out to be 6.6 fold. For the same molecule, the “fold increase in potency as measured by hWB IC50” value on human NLRP3 [3] (relative to Compound 46A) was determined as 3 fold.

Turning to `C[C@@H]1C[C@@H](NC(=O)C2(c3ccc(C4CC4)cc3)CC2)[C@H]2CC[C@@H]1N2c1nnn[nH]1` [81A*, 1-(4-cyclopropylphenyl)-N-((1R,2R,4R,5S)-4-methy1-8-(1H-tetrazol-5-yl)-8-azabicyclo[3.2.1]octan-2-yl)cyclopropane-1-carboxamide], the IC50 is 10 to 100 nM on human NLRP3 [1] (setting [5]), less than 1000 nM on human NLRP3 [2] (displacement of 3H-MCC950) and less than 1000 nM against human NLRP3 [3] (setting [6]).

For the molecule `C[C@@H]1C[C@@H](NC(=O)C2(c3ccc(OC(F)(F)F)cc3)CC2)[C@H]2CC[C@@H]1N2c1nnn[nH]1` [82A*, N-((1R,2R,4R,5S)-4-methy1-8-(1H-tetrazol-5-yl)-8-azabicyclo[3.2.1]octan-2-yl)-1-(4-(trifluoromethoxy)phenyl)cyclopropane-1-carboxamide], the IC50 was less than 10 nM on human NLRP3 [1] (setting [5]), less than 1000 nM on human NLRP3 [2] (displacement of 3H-MCC950) and less than 1000 nM against human NLRP3 [3] (setting [6]).

Consider `C[C@@H]1C[C@@H](NC(=O)C2(c3ccc(C4CC4)c(F)c3O)CC2)[C@H]2CC[C@@H]1N2c1nnn[nH]1` [83A*, 1-(4-cyclopropy1-3-fluoro-2-hydroxyphenyl)-N-((1R,2R,4R,5S)-4-methy1-8-(1H-tetrazol-5-yl)-8-azabicyclo[3.2.1]octan-2-yl)cyclopropane-1-carboxamide], for which the IC50 was less than 10 nM against human NLRP3 [1] (setting [5]), less than 1000 nM at human NLRP3 [2] (displacement of 3H-MCC950) and less than 1000 nM on human NLRP3 [3] (setting [6]).

As for `C[C@@H]1C[C@@H](NC(=O)C2(c3ccc(C(F)(F)F)cc3F)CC2)[C@H]2CC[C@@H]1N2c1nnn[nH]1` [84A*, 1-(2-fluoro-4-(trifluoromethyl)phenyl)-N-((1R,2R,4R,5S)-4-methyl-8-(1H-tetrazol-5-yl)-8-azabicyclo[3.2.1]octan-2-yl)cyclopropane-1-carboxamide], the figures for the concentration for half-maximal inhibition (IC50) against human NLRP3 [1] (setting [5]), on human NLRP3 [2] (displacement of 3H-MCC950) and against human NLRP3 [3] (setting [6]) were less than 10 nM, less than 1000 nM and less than 1000 nM, respectively.

The values are drawn from patent US20260007684A1, “AMIDE DERIVATIVES FOR INHIBITING NLRP3 AND USES THEREOF” (Ventus Therapeutics U.S., Inc., priority 2023, published 2026).
